# In the NIST ThermoML archive (doi:10.1016/j.jct.2019.02.028):
# Numbers after ± are expanded uncertainties.
# Assay: xn = mol fraction of the nth substance listed
# Details: Gas, Burnett expansion method
smiles,measurement,setting,value
"C=C(F)C(F)(F)F [2,3,3,3-tetrafluoro-1-propene] + FCF",mass density,"298.75 K, 572.1 kPa, x2 = 0.119",28.04 ± 0.54 kg/m3
same,mass density,"298.79 K, 1055.5 kPa, x2 = 0.698",36.11 ± 0.34 kg/m3
same,mass density,"298.8 K, 475.09 kPa, x2 = 0.449",18 ± 0.17 kg/m3
same,mass density,"298.8 K, 476.95 kPa, x2 = 0.259",20.72 ± 0.18 kg/m3
same,mass density,"298.8 K, 518.4 kPa, x2 = 0.698",16.01 ± 0.15 kg/m3
same,mass density,"298.8 K, 684.19 kPa, x2 = 0.449",27.04 ± 0.21 kg/m3
same,mass density,"298.82 K, 748.46 kPa, x2 = 0.698",24.04 ± 0.22 kg/m3
same,mass density,"298.86 K, 487.12 kPa, x2 = 0.874",12.55 ± 0.15 kg/m3
same,mass density,"298.86 K, 1393.8 kPa, x2 = 0.874",42.51 ± 0.35 kg/m3
same,mass density,"298.87 K, 1004.6 kPa, x2 = 0.874",28.3 ± 0.32 kg/m3
same,mass density,"298.93 K, 704.35 kPa, x2 = 0.874",18.84 ± 0.22 kg/m3
same,mass density,"308.66 K, 1524.8 kPa, x2 = 0.698",54.21 ± 0.54 kg/m3
same,mass density,"308.68 K, 1108.2 kPa, x2 = 0.698",36.09 ± 0.34 kg/m3
same,mass density,"308.69 K, 597.54 kPa, x2 = 0.119",28.02 ± 0.15 kg/m3
same,mass density,"308.7 K, 493.92 kPa, x2 = 0.449",17.99 ± 0.17 kg/m3
same,mass density,"308.7 K, 496.45 kPa, x2 = 0.259",20.72 ± 0.17 kg/m3
same,mass density,"308.71 K, 538.99 kPa, x2 = 0.698",16 ± 0.15 kg/m3
same,mass density,"308.71 K, 714.14 kPa, x2 = 0.449",27.02 ± 0.25 kg/m3
same,mass density,"308.71 K, 842.28 kPa, x2 = 0.119",42.09 ± 0.28 kg/m3
same,mass density,"308.72 K, 712.34 kPa, x2 = 0.259",31.11 ± 0.24 kg/m3
same,mass density,"308.72 K, 997.47 kPa, x2 = 0.259",46.73 ± 0.35 kg/m3
same,mass density,"308.73 K, 780.62 kPa, x2 = 0.698",24.03 ± 0.22 kg/m3
same,mass density,"308.74 K, 1976.1 kPa, x2 = 0.874",63.81 ± 0.55 kg/m3
same,mass density,"308.76 K, 1011.1 kPa, x2 = 0.449",40.58 ± 0.37 kg/m3
same,mass density,"308.77 K, 1470.2 kPa, x2 = 0.874",42.48 ± 0.51 kg/m3
same,mass density,"308.78 K, 1051.3 kPa, x2 = 0.874",28.28 ± 0.33 kg/m3
same,mass density,"308.79 K, 506.01 kPa, x2 = 0.874",12.54 ± 0.15 kg/m3
same,mass density,"308.82 K, 733.43 kPa, x2 = 0.874",18.83 ± 0.22 kg/m3
same,mass density,"313.6 K, 1566.5 kPa, x2 = 0.698",54.19 ± 0.54 kg/m3
same,mass density,"313.64 K, 503.35 kPa, x2 = 0.449",17.98 ± 0.17 kg/m3
same,mass density,"313.64 K, 1134 kPa, x2 = 0.698",36.08 ± 0.34 kg/m3
same,mass density,"313.65 K, 610.01 kPa, x2 = 0.119",28.01 ± 0.15 kg/m3
same,mass density,"313.66 K, 506.36 kPa, x2 = 0.259",20.71 ± 0.17 kg/m3
same,mass density,"313.66 K, 728.88 kPa, x2 = 0.449",27.01 ± 0.25 kg/m3
same,mass density,"313.67 K, 796.71 kPa, x2 = 0.698",24.02 ± 0.22 kg/m3
same,mass density,"313.68 K, 549.32 kPa, x2 = 0.698",15.99 ± 0.15 kg/m3
same,mass density,"313.68 K, 727.83 kPa, x2 = 0.259",31.11 ± 0.24 kg/m3
same,mass density,"313.68 K, 862.42 kPa, x2 = 0.119",42.07 ± 0.28 kg/m3
same,mass density,"313.68 K, 1021.8 kPa, x2 = 0.259",46.73 ± 0.35 kg/m3
same,mass density,"313.7 K, 1507.4 kPa, x2 = 0.874",42.47 ± 0.51 kg/m3
same,mass density,"313.7 K, 2038.5 kPa, x2 = 0.874",63.79 ± 0.55 kg/m3
same,mass density,"313.72 K, 1034.8 kPa, x2 = 0.449",40.57 ± 0.37 kg/m3
same,mass density,"313.72 K, 1074 kPa, x2 = 0.874",28.28 ± 0.33 kg/m3
same,mass density,"313.74 K, 515.35 kPa, x2 = 0.874",12.53 ± 0.15 kg/m3
same,mass density,"313.79 K, 747.77 kPa, x2 = 0.874",18.83 ± 0.22 kg/m3
same,mass density,"318.62 K, 1609.8 kPa, x2 = 0.698",54.18 ± 0.53 kg/m3
same,mass density,"318.68 K, 1159.3 kPa, x2 = 0.698",36.07 ± 0.34 kg/m3
same,mass density,"318.7 K, 2100 kPa, x2 = 0.874",63.77 ± 0.91 kg/m3
same,mass density,"318.72 K, 512.99 kPa, x2 = 0.449",17.98 ± 0.16 kg/m3
same,mass density,"318.72 K, 882.63 kPa, x2 = 0.119",42.06 ± 0.26 kg/m3
same,mass density,"318.72 K, 1210.1 kPa, x2 = 0.119",63.25 ± 0.45 kg/m3
same,mass density,"318.73 K, 516.26 kPa, x2 = 0.259",20.71 ± 0.17 kg/m3
same,mass density,"318.73 K, 743.73 kPa, x2 = 0.449",27 ± 0.24 kg/m3
same,mass density,"318.73 K, 813.03 kPa, x2 = 0.698",24.02 ± 0.22 kg/m3
same,mass density,"318.73 K, 1463.2 kPa, x2 = 0.449",61.04 ± 0.6 kg/m3
same,mass density,"318.74 K, 559.65 kPa, x2 = 0.698",15.99 ± 0.15 kg/m3
same,mass density,"318.74 K, 743.48 kPa, x2 = 0.259",31.1 ± 0.24 kg/m3
same,mass density,"318.74 K, 1046.5 kPa, x2 = 0.259",46.72 ± 0.45 kg/m3
same,mass density,"318.74 K, 1058.5 kPa, x2 = 0.449",40.56 ± 0.38 kg/m3
same,mass density,"318.74 K, 1097.2 kPa, x2 = 0.874",28.27 ± 0.33 kg/m3
same,mass density,"318.74 K, 1544.9 kPa, x2 = 0.874",42.46 ± 0.51 kg/m3
same,mass density,"318.75 K, 622.85 kPa, x2 = 0.119",28 ± 0.15 kg/m3
same,mass density,"318.77 K, 762.25 kPa, x2 = 0.874",18.82 ± 0.22 kg/m3
same,mass density,"318.78 K, 525.03 kPa, x2 = 0.874",12.53 ± 0.15 kg/m3
same,mass density,"323.56 K, 1650.9 kPa, x2 = 0.698",54.16 ± 0.53 kg/m3
same,mass density,"323.62 K, 1184.6 kPa, x2 = 0.698",36.06 ± 0.34 kg/m3
same,mass density,"323.62 K, 2161.1 kPa, x2 = 0.874",63.75 ± 0.74 kg/m3
same,mass density,"323.67 K, 522.17 kPa, x2 = 0.449",17.97 ± 0.16 kg/m3
same,mass density,"323.67 K, 902.39 kPa, x2 = 0.119",42.05 ± 0.26 kg/m3
same,mass density,"323.67 K, 2803.5 kPa, x2 = 0.874",96.27 ± 0.9 kg/m3
same,mass density,"323.68 K, 525.72 kPa, x2 = 0.259",20.71 ± 0.17 kg/m3
same,mass density,"323.68 K, 569.78 kPa, x2 = 0.698",15.98 ± 0.15 kg/m3
same,mass density,"323.68 K, 758.4 kPa, x2 = 0.449",27 ± 0.24 kg/m3
same,mass density,"323.68 K, 828.96 kPa, x2 = 0.698",24.01 ± 0.22 kg/m3
same,mass density,"323.68 K, 1081.3 kPa, x2 = 0.449",40.55 ± 0.38 kg/m3
same,mass density,"323.69 K, 533.88 kPa, x2 = 0.874",12.53 ± 0.15 kg/m3
same,mass density,"323.69 K, 758.79 kPa, x2 = 0.259",31.1 ± 0.23 kg/m3
same,mass density,"323.69 K, 1070.4 kPa, x2 = 0.259",46.71 ± 0.38 kg/m3
same,mass density,"323.69 K, 1460 kPa, x2 = 0.259",70.1 ± 0.56 kg/m3
same,mass density,"323.69 K, 1502 kPa, x2 = 0.449",61.01 ± 0.59 kg/m3
same,mass density,"323.69 K, 2207.6 kPa, x2 = 0.698",81.35 ± 0.89 kg/m3
same,mass density,"323.7 K, 635.26 kPa, x2 = 0.119",27.99 ± 0.15 kg/m3
same,mass density,"323.7 K, 1243.5 kPa, x2 = 0.119",63.23 ± 0.44 kg/m3
same,mass density,"323.7 K, 1581.8 kPa, x2 = 0.874",42.45 ± 0.5 kg/m3
same,mass density,"323.71 K, 776.56 kPa, x2 = 0.874",18.81 ± 0.22 kg/m3
same,mass density,"323.73 K, 1120.2 kPa, x2 = 0.874",28.26 ± 0.33 kg/m3
same,mass density,"328.55 K, 1691.6 kPa, x2 = 0.698",54.15 ± 0.53 kg/m3
same,mass density,"328.58 K, 1209.7 kPa, x2 = 0.698",36.05 ± 0.33 kg/m3
same,mass density,"328.6 K, 543.23 kPa, x2 = 0.874",12.52 ± 0.15 kg/m3
same,mass density,"328.61 K, 531.32 kPa, x2 = 0.449",17.97 ± 0.16 kg/m3
same,mass density,"328.61 K, 772.98 kPa, x2 = 0.449",26.99 ± 0.24 kg/m3
same,mass density,"328.61 K, 1275.3 kPa, x2 = 0.119",63.21 ± 0.43 kg/m3
same,mass density,"328.62 K, 579.61 kPa, x2 = 0.698",15.98 ± 0.15 kg/m3
same,mass density,"328.62 K, 2220.5 kPa, x2 = 0.874",63.73 ± 0.74 kg/m3
same,mass density,"328.62 K, 2904.2 kPa, x2 = 0.874",96.19 ± 0.88 kg/m3
same,mass density,"328.63 K, 535.28 kPa, x2 = 0.259",20.7 ± 0.17 kg/m3
same,mass density,"328.63 K, 844.62 kPa, x2 = 0.698",24 ± 0.22 kg/m3
same,mass density,"328.63 K, 922.19 kPa, x2 = 0.119",42.04 ± 0.25 kg/m3
same,mass density,"328.63 K, 1094.6 kPa, x2 = 0.259",46.71 ± 0.38 kg/m3
same,mass density,"328.63 K, 1105.1 kPa, x2 = 0.449",40.54 ± 0.38 kg/m3
same,mass density,"328.63 K, 1499.1 kPa, x2 = 0.259",70.09 ± 0.57 kg/m3
same,mass density,"328.64 K, 647.48 kPa, x2 = 0.119",27.99 ± 0.15 kg/m3
same,mass density,"328.64 K, 773.73 kPa, x2 = 0.259",31.1 ± 0.23 kg/m3
same,mass density,"328.64 K, 1540.2 kPa, x2 = 0.449",60.98 ± 0.59 kg/m3
same,mass density,"328.64 K, 2275.8 kPa, x2 = 0.698",81.33 ± 0.87 kg/m3
same,mass density,"328.65 K, 1617.6 kPa, x2 = 0.874",42.43 ± 0.5 kg/m3
same,mass density,"328.66 K, 790.86 kPa, x2 = 0.874",18.81 ± 0.22 kg/m3
same,mass density,"328.67 K, 1142.6 kPa, x2 = 0.874",28.25 ± 0.33 kg/m3
same,mass density,"333.46 K, 1731.9 kPa, x2 = 0.698",54.13 ± 0.52 kg/m3
same,mass density,"333.56 K, 540.51 kPa, x2 = 0.449",17.96 ± 0.16 kg/m3
same,mass density,"333.57 K, 941.58 kPa, x2 = 0.119",42.02 ± 0.25 kg/m3
same,mass density,"333.57 K, 1235.3 kPa, x2 = 0.698",36.04 ± 0.33 kg/m3
same,mass density,"333.57 K, 2278.9 kPa, x2 = 0.874",63.71 ± 0.73 kg/m3
same,mass density,"333.57 K, 2342.7 kPa, x2 = 0.698",81.3 ± 0.85 kg/m3
same,mass density,"333.58 K, 544.62 kPa, x2 = 0.259",20.7 ± 0.17 kg/m3
same,mass density,"333.58 K, 1578 kPa, x2 = 0.449",60.96 ± 0.62 kg/m3
same,mass density,"333.58 K, 1734.6 kPa, x2 = 0.119",94.99 ± 0.76 kg/m3
same,mass density,"333.58 K, 2115 kPa, x2 = 0.449",91.6 ± 0.99 kg/m3
same,mass density,"333.58 K, 3002.9 kPa, x2 = 0.874",96.12 ± 1.5 kg/m3
same,mass density,"333.59 K, 659.59 kPa, x2 = 0.119",27.98 ± 0.15 kg/m3
same,mass density,"333.59 K, 787.46 kPa, x2 = 0.449",26.98 ± 0.24 kg/m3
same,mass density,"333.59 K, 788.83 kPa, x2 = 0.259",31.09 ± 0.23 kg/m3
